Measured values: patent US5955325A, “Method for producing sulfated lactosamine oligosaccharide” (Seikagaku Kogyo Kabushiki Kaisha, priority 1996, dated 1999)
Entries after “also recorded” stand apart in the source; their conditions may differ.

Columns and labels:
[1] = test system: chondroitin 6-sulfotransferase; test: Transfer reaction of sulfate group (35SO4) to lactosamine oligosaccharides by purified sulfotransferase; assay type: biochemical, chick; conditions: for Incorporation of 35S: 0.025 μmol oligosaccharide acceptor, 25 pmol [35S]PAPS, 0.09 μg purified C6ST, 37° C., 60 minutes, pH 6.8; for Incorporation (transfer) of sulfate group into the oligosaccharide, in words: acceptor for chondroitin 6-sulfotransferase, Superdex 30 gel filtration, 35S radioactivity
Protocol: Specifically, the transfer reaction of sulfate group (^35 SO4 was used as sulfate group in order to confirm sulfation) to various lactosamine oligosaccharides by using sulfotransferase was performed in accordance with the following method. A standard reaction mixture was a solution containing 2.5 μmol of imidazole-HCl (pH 6.8), 0.25 μmol of CaCl2, 0.1 μmol of dithiothreitol, 0.025 μmol of various lactosamine oligosaccharides, 25 pmol of [^35 S]PAPS (about 2.5×10^5 cpm), and 0.09 μg of purified chondroitin 6-sulfotransferase in a final volume of 50 μl. The reaction mixture was subjected to the reaction at 37° C. for 60 minutes in a reaction tube. The reaction was terminated by immersing the reaction tube in boiling water for 1 minute. After the termination of the reaction, lactosamine oligosaccharide (sulfated lactosamine oligosaccharide) to which ^35 SO4 had been transferred was separated from free ^35 SO4 and [^35 S]PAPS by means of gel filtration chromatography. A fraction (1 ml) was collected to measure the radioactivity.
The retention time of the sulfated lactosamine oligosaccharide was faster by 2 to 3 minutes than the retention time (indicated by arrows shown in FIG. 1) of the lactosamine oligosaccharide used (lactosamine oligosaccharide before sulfation (acceptor)). […] A peak of sulfated LN partially overlapped with those of free ^35 SO4 and [^35 S]PAPS. A radioactivity peak (indicated by a horizontal bar in FIG. 1A) of a product produced from LN was subjected to paper electrophoresis. As a result, the sulfated LN was separated from ^35 SO4 and [^35 S]PAPS. Therefore, incorporation of sulfate group (^35 SO4) into LN was calculated after the paper electrophoresis.

[2] = test system: chondroitin 6-sulfotransferase (C6ST); test: Sulfotransferase activity measured with various glycosaminoglycan substrates and activators; assay type: biochemical, chick; conditions: for Transfer of sulfate group to glycosaminoglycan substrate by C6ST, in words: 25 nmol glycosaminoglycan, [35S]PAPS, 37° C., 20 minutes
Protocol: In the purification steps, the sulfotransferase activity was measured as follows. The reaction solution had the following composition.
The activity was measured for various glycosaminoglycans as the substrate, by using 25 nmol of glycosaminoglycans (as an amount of galactosamine for chondroitin sulfate and dermatan sulfate, or as an amount of glucosamine for heparan sulfate and keratan sulfate) in place of chondroitin.
The reaction solution was incubated at 37° C. for 20 minutes in a reaction tube, and then the reaction was terminated by immersing the reaction tube in boiling water for 1 minute. After the termination of the reaction, 0.1 μmol of chondroitin sulfate A (as an amount of glucuronic acid) was added as a carrier, and three volumes of ethanol containing 1.3% potassium acetate was added thereto to precipitate ^35 S-labeled polysaccharide. The mixture was centrifuged at 10,000× g for 10 minutes to obtain a precipitate which was then dissolved in 70 μl of water. An aliquot (50 μl) of the obtained solution was injected into a desalting column equilibrated with 0.1 M NH4 HCO3, and eluted fractions containing the ^35 S-labeled polysaccharide were collected. To an aliquot (200 μl) of an obtained collected fraction, 1 ml of a scintillation cocktail (Clearsol, produced by nacalai tesque) was added to measure ^35 S-radioactivity. Thus incorporation of ^35 S into the polysaccharide was measured.
An aliquot (400 μl) was dispensed from the residual solution, to which 800 μl of ethanol containing 1.3% potassium acetate was added, followed by mixing. The mixture was placed on ice for 30 minutes, followed by centrifugation at 10,000× g for 10 minutes to precipitate the ^35 S-labeled polysaccharide. The precipitate was dissolved in 25 μl of a buffer containing 0.1 mg/ml of BSA, 0.05 M Tris-acetate, pH 7.5, and 10 milliunits of chondroitinase ACII (originating from Arthrobacter aurescens, produced by Seikagaku Corporation) to perform a reaction at 37° C. for 2 hours. The solution after the reaction was spotted onto Whatman No. 1 filter paper together with 2-acetamido-2-deoxy-3-O-(β-D-gluco-4-enopyranosyluronic acid)-6-O-sulfo-D-galactose (ΔDi-6S) and 2-acetamido-2-deoxy-3-O-(β-D-gluco-4-enopyranosyluronic acid)-4-O-sulfo-D-galactose (ΔDi-4S) (each 0.1 μmol, each produced by Seikagaku Corporation), followed by development for 20 hours with 1-butanol/acetic acid/1 M ammonium hydroxide (2:3:1 (V/V/V)).
(§1) Positions of ΔDi-6S and ΔDi-4S were inspected by using an ultraviolet lamp respectively. Portions corresponding to them were excised from the filter paper respectively, and were then placed in a scintillator prepared by dissolving 5 g of diphenyloxazole and 0.25 g of dimethyl-1,4-bis(2-(5-phenyloxazole))benzene in 1 L of toluene to measure radioactivity. […] According to incorporation of ^35 S into ΔDi-6S and ΔDi-4S, activities of chondroitin 6-sulfotransferase and chondroitin 4-sulfotransferase were calculated respectively. The activity to catalyze transfer of 1 pmol sulfate group/minute was defined as 1 unit.

[3] = Specific activity of purified chondroitin 6-sulfotransferase (35S incorporation into ΔDi-6S and ΔDi-4S); assay type: biochemical; conditions: chondroitin substrate
Protocol: In the purification steps, the sulfotransferase activity was measured as follows. The reaction solution had the following composition. Namely, the reaction solution (50 μl) contained 2.5 μmol of imidazol-HCl, pH 6.8, 1.25 μg of protamine hydrochloride, 0.1 μmol of dithiothreitol,25 nmol (as an amount of glucuronic acid) of chondroitin (produced by Seikagaku Corporation), 50 pmol of [^35 S]PAPS (adenosine 3'-phosphate, 5'-phosphosulfate), and the enzyme.
The reaction solution was incubated at 37° C. for 20 minutes in a reaction tube, and then the reaction was terminated by immersing the reaction tube in boiling water for 1 minute. […] To an aliquot (200 μl) of an obtained collected fraction, 1 ml of a scintillation cocktail (Clearsol, produced by nacalai tesque) was added to measure ^35 S-radioactivity. Thus incorporation of ^35 S into the polysaccharide was measured. […]
as §1, with “The activity to catalyze transfer of 1 pmol sulfate group/minute was defined as 1 unit.” left out

CC(=O)N[C@H]1[C@H](O[C@H]2[C@@H](O)[C@@H](CO)O[C@@H](O[C@H]3[C@H](O)[C@@H](NC(C)=O)C(O)O[C@@H]3CO)[C@@H]2O)O[C@H](CO)[C@@H](O[C@@H]2O[C@H](CO)[C@H](O)[C@H](O)[C@H]2O)[C@@H]1O (stereo partly shown) [L1L1, Galβ1--4GlcNAcβ1--3Galβ1--4GlcNAc]
Incorporation of 35S [1]: 0.031 pmol/minute/μg protein | Incorporation (transfer) of sulfate group into the oligosaccharide, in words [1]: observed

CC(=O)N[C@H]1[C@H](O[C@H]2[C@@H](O)[C@@H](COS(=O)(=O)O)O[C@@H](O[C@H]3[C@H](O)[C@@H](NC(C)=O)C(O)O[C@@H]3COS(=O)(=O)O)[C@@H]2O)O[C@H](COS(=O)(=O)O)[C@@H](O[C@@H]2O[C@H](CO)[C@H](O)[C@H](O)[C@H]2O)[C@@H]1O (stereo partly drawn) [L2L4, Galβ1--4GlcNAc(6S)β1--3Gal(6S)β1--4GlcNAc(6S)]
Incorporation of 35S [1]: 0.29 pmol/minute/μg protein | Incorporation (transfer) of sulfate group into the oligosaccharide, in words [1]: observed

CC(=O)N[C@H]1C(O)O[C@H](CO)[C@@H](O[C@@H]2O[C@H](CO)[C@H](O)[C@H](O)[C@H]2O)[C@@H]1O (stereo partly shown) [LN, Galβ1--4GlcNAc]
Incorporation of 35S [1]: 0.012 pmol/minute/μg protein | Incorporation (transfer) of sulfate group into the oligosaccharide, in words [1]: observed

[Cl][Mn][Cl] [MnCl2]
Effect on the activity of C6ST [2]: increased

CC(=O)NC1C(O)OC(CO)C(OC2OC(CO)C(O)C(OC3OC(CO)C(OC4OC(CO)C(O)C(OC5(C(=O)O)CC(O)C(NC(C)=O)C(C(O)C(O)CO)O5)C4O)C(O)C3NC(C)=O)C2O)C1O (stereo not shown) [SL1L1, NeuAcα2--3Galβ1--4GlcNAcβ1--3Galβ1--4GlcNAc]
Incorporation of 35S [1]: 0.034 pmol/minute/μg protein | Incorporation (transfer) of sulfate group into the oligosaccharide, in words [1]: observed

CC(=O)NC1C(O)OC(COS(=O)(=O)O)C(OC2OC(COS(=O)(=O)O)C(O)C(OC3OC(COS(=O)(=O)O)C(OC4OC(CO)C(O)C(OC5(C(=O)O)CC(O)C(NC(C)=O)C(C(O)C(O)CO)O5)C4O)C(O)C3NC(C)=O)C2O)C1O [SL2L4, NeuAcα2--3Galβ1--4GlcNAc(6S)β1--3Gal(6S)β1--4GlcNAc(6S)]
Incorporation of 35S [1]: 0.48 pmol/minute/μg protein | Incorporation (transfer) of sulfate group into the oligosaccharide, in words [1]: observed

CC(=O)NC1C(O)OC(CO)C(OC2OC(CO)C(O)C(OC3(C(=O)O)CC(O)C(NC(C)=O)C(C(O)C(O)CO)O3)C2O)C1O (stereo not shown) [SLN, NeuAcα2--3Galβ1--4GlcNAc]
Incorporation of 35S [1]: 0.022 pmol/minute/μg protein | Incorporation (transfer) of sulfate group into the oligosaccharide, in words [1]: observed

CC(=O)NC1C(O)CC(OC2C(O)C(CO)OC(OC3C(CO)OC(O)C(NC(C)=O)C3OC3OC(C)C(O)C(O)C3O)C2O)(C(=O)O)OC1C(O)C(O)CO (stereo not shown) [SLe^x, NeuAcα2--3Galβ1--4(Fucα1-3)GlcNAc]
Incorporation (transfer) of sulfate group into the oligosaccharide, in words [1]: no radioactivity was detected; also recorded: not detected

chondroitin
Transfer of sulfate group to glycosaminoglycan substrate by C6ST, in words [2]: transfers the sulfate group

chondroitin sulfate
Transfer of sulfate group to glycosaminoglycan substrate by C6ST, in words [2]: transfers the sulfate group

chondroitin sulfate A
Transfer of sulfate group to glycosaminoglycan substrate by C6ST, in words [2]: transfers the sulfate group

chondroitin sulfate C
Transfer of sulfate group to glycosaminoglycan substrate by C6ST, in words [2]: transfers the sulfate group

chondroitin sulfate E
Transfer of sulfate group to glycosaminoglycan substrate by C6ST, in words [2]: only scarcely transferred

dermatan sulfate
Transfer of sulfate group to glycosaminoglycan substrate by C6ST, in words [2]: only scarcely transferred

heparan sulfate
Transfer of sulfate group to glycosaminoglycan substrate by C6ST, in words [2]: only scarcely transferred

keratan sulfate
Transfer of sulfate group to glycosaminoglycan substrate by C6ST, in words [2]: transfers the sulfate group

protamine
Effect on the activity of C6ST [2]: increased

B1: chondroitin 6-sulfotransferase: sulfotransferase purified from serum-free culture medium of chick chondrocyte (protein, UniProt Q92179 1-458, looked up)
Carbohydrate sulfotransferase …: MERRSALPQDFREVLHCLKMRSKYAVLLVFVVGLVIIEKENNFISRVSDKLKQSPQVLPEANETEASPVQAENGSLASLRQLDTAFSQLRTRLRNVTLQLAGELGIAAPEPRRHVLLMATTRTGSSFVGEFFNQQGNIFYLFEPLWHIERTVTFEPGGANAVGSALVYRDVLQQLLLCDLYILESFISPAPEEHLTAALFRRGSSHSLCEEPVCTPSLKKVFEKYHCKNRRCGPLNITLAAEACRRKQHMALKTVRIRQLEFLQPLAEDPRLDLRIIQLVRDPRAVLVSRMVAFSGKYESWKKWAAEGEAPLQEDEVQRLRGNCESIRLSAELGLRQPRWLRGRYMLVRYEDVARAPLRKALEMYRFAGIHPTPQVEEWIRANTQAPQDSNGIYSTQKNSSEQFEKWRFSIPFKLAQVVQDACEPAMRLFGYKLASSAQELTNRSLSLLEEGPPTRIT
Specific activity of chondroitin 6-sulfotransferase ([3]; 1 unit = transfer of 1 pmol sulfate group/minute): 4.3×10^5 units/mg | Ratio of activities of chondroitin 4-sulfotransferase/chondroitin 6-sulfotransferase ([3]; purified enzyme): 0.02
